{"source": "patent US20060046972A1", "about": "“Cytotoxic nucleoside analog compound 003 for treating cancer” (Parker Hughes Institute, priority 2004, published 2006)", "key": {"BT20 cells": {"system": "BT20 cells", "experiment": "Cellular uptake of Compound 003", "assay_type": "in vitro ADME, human", "conditions": "50 μM, 1 hr", "description": "Intracellular metabolism of Compound 003 was studied in CEM T-lineage lymphoma cell line, BT20 breast cancer cell line, T98 glioblastoma cell line, and Nalm-6 B-lineage leukemia cell line. CEM and Nalm6 cells were maintained in RPMI supplemented with 10% fetal bovine serum, and 1% penicillin/streptomycin. BT20 and T98 cells w.ere cultured in a medium composed of MEM, 10% fetal bovine serum, 0.1-mM of nonessential amino acids and Earles salts, and 1% penicillin/streptomycin. CEM and Nalm6 cells at a density of 10^6 cells per ml were utilized in the drug metabolism study. BT20 and T98 cells were seeded in 6-cm petri-dishes at 4 million cells and 2 million cells per plate, respectively, the day before the experiment. Either one plate of adherent cells or 10 million non-adherent cells was utilized at each time point. Cells were incubated with various concentrations of the compounds up to 24 hrs at 37° C. After incubation, cells were washed 2 times with ice-cold PBS, and extracted by addition of 0.5-1 ml of 60% methanol. […] With efflux experiments, cells 1×10^6/mL (the same density as in the uptake study) were incubated with 100 μM Compound 003 for 1 hr, washed 2 times with ice-cold PBS, and resuspended with culture medium without drug, and the metabolite efflux from cells to the medium was measured after 6 hr of incubation."}, "[1]": {"experiment": "Pharmacokinetics in CD-1 mice after intravenous or oral Compound 003", "assay_type": "in vivo", "procedure": "Each plasma sample (200 μL) was mixed 1:4 with acetone (800 μL) and vortexed for at least 30 seconds. Following centrifugation, the supernatant was transferred into a clean tube and dried under nitrogen. A 50 μL solution of 50% methanol in 200 mM HCl was used to reconstitute the extraction residue, and 35 μL was subjected to analytical HPLC. The analytical column used was a 250×4 mm Lichrospher 100, RP-18 (5 μm) and the guard column was a 4×4 mm Lichrospher 100, RP-18 (5 μm). The mobile phase was degassed automatically by the electronic degasser system. The column was equilibrated and eluted under gradient conditions utilizing a flow rate of 1.0 ml/min at ambient temperature. The linear gradient mobile phase was: 0 minute, 100% 10 mM ammonium phosphate buffer (pH 3.7); 20 minutes, 20% acetonitrile, 80% ammonium phosphate buffer (pH 3.7); 20.1-50 minutes, 28% acetonitrile, 72% water (0.1% HAC). The wavelength of detection was set at 270 nm. Peak width, response time and slit werep, set at >0.03 minutes, 0.5 s and 8 nm, respectively.\nFemale CD-1 mice (6-8 weeks old) (Charles River, Wilmington, Mass.) were housed in a USDA-accredited animal care facility under standard environmental conditions (12-h light/12-h dark photoperiod, 22±1° C., 60±10% relative humidity). All rodents were housed in microisolator cages (Lab Products, Inc., N.J.) containing autoclaved bedding. Mice were allowed free access to autoclaved pellet food and tap water throughout the study. All animal studies are approved by the Parker Hughes Institute Animal Care and Use Committee, and all animal care procedures conformed to the principles outlined in the Guide for the Care and Use of Laboratory Animals (National Research Council;. National Academy Press, Washington D.C. 1996).\nCompound 003 (200 mg/kg) dissolved in DMSO was administered intravenously via tail vein to non-fasted mice or orally via gavage to 12-h fasted mice. Four to six mice per time-point were used for pharmacokinetic studies. Blood samples (˜500 μL) were obtained from the ocular venous plexus by retro-orbital venipuncture at 0, 5, 10, 15, 30, 45 minutes, and 1 h, 1.5 h, 2 h, 4 h, 6 h and 8 h after oral administration. All collected blood-samples were heparinized and centrifuged at 7000×g for 5 minutes to separate the plasma fraction from the whole blood. The plasma samples were then processed immediately using the extraction procedure described above.\nPharmacokinetic modeling and parameter calculations were carried out using the WinNonlin Professional Version 3.0 (Pharsight, Inc., Mountain, Calif.) pharmacokinetics software (Chen, C. L., et al., (1999) Pharm Res. 16:117; Chen, C. L., et al., (1999) Pharm Res. 16:1003; Uckun, F. M., et al., (1999) Clin Cancer Res. 5:2954). An appropriate model was chosen on the basis of the lowest sum of weighted squared residuals, the lowest Schwartz Criterion (SC), the lowest Akaike's Information Criterion (AIC) value, the lowest standard errors of the fitted parameters, and the dispersion of the residuals. The elimination half-life was estimated by linear regression analysis of the terminal phase of the plasma concentration-time profile. The systemic clearance (CL) was determined by dividing the dose by the AUC."}, "U373 glioblastoma cells": {"system": "U373 glioblastoma cells", "experiment": "Confocal laser scanning microscopy of mitotic spindle, U373", "assay_type": "cell-based, human", "conditions": "100 μM", "procedure": "Immunofluorenscence was used to examine the spindle features of human cancer cell lines treated with Compound 003 or 0.5% DMSO. Initially, cells at log phase were seeded onto sterile 22 mm coverslips in six -well culture plates. 24 hours later, the cells were treated with compound 003 for 2 hours at 37° C., 5% C02, fixed in methanol (−20° C. 15 min) followed by a 15 minute incubation with PBS +0.1.% Tx-100. The coverslips were incubated with antibodies raised against α-tubulin, γ-tubulin (Sigma Chemical Co., St Louis, Mo.) (40 min 37° C.), washed in PBS-Tx-100, and incubated with an appropriate secondary antibody conjugated to FITC (Jackson ImmunoResearch, Westgrove, Pa.). Cellular DNA was labeled with 5 μM TOTO3 (Molecular Probes, Eugene, Oreg.) for 20 minutes. Coverslips were immediately inverted onto slides in Vectashield (Vector Labs, Burlingame, Calif.) to prevent photobleaching, sealed with nail varnish and stored at −20° C. The slides were examined using a Bio-Rad MRC-1024 Laser Scanning Confocal Microscope equipped with a Kr/Ar laser (BioRad, Hercules, Calif.) mounted on a Nikon Eclipse E800 upright microscope with high numerical aperture objectives (Nikon, Melville, N.Y.). Digital data were processed using Lasersharp (BioRad) and Adobe Photoshop software (Adobe Systems, Mountain View, Calif.). […]"}}}
{"smiles": "COC(=O)C(C)NP(=O)(OCC1OC(n2cc(C)c(=O)[nH]c2=O)CC1N=[N+]=[N-])Oc1ccc(OC)cc1", "note": "(stereo not shown) [Compound 003, 3′-azidothymidine 5′-[p-methoxyphenylmethoxyalaninyl phosphate]]", "values": [{"measurement": "uptake of Compound 003, BT20 relative to Nalm6 and CEM cells", "setting": "BT20 cells", "value": "about 2 fold"}, {"measurement": "in vivo transformation of parent compound", "setting": "[1]; i.v. injection of 200 mg/kg", "value": "immediately transformed to Ala-AZT-MP and AZT"}, {"measurement": "plasma concentration of parent compound", "setting": "[1]; oral 200 mg/kg, below the detection limit", "value": "< 500", "unit": "nM"}, {"measurement": "mitotic spindle formation", "setting": "U373 glioblastoma cells", "value": "induced aberrant multipolar spindle formation"}]}
